The test system of data set [1] is Rat Retinal Ischemia Reperfusion Model. As to the kind of experiment: Protecting effect of retinal nerve in rat retinal ischemia reperfusion model (electroretinogram measurement). The data set is classed as in vivo. The note with it: SD rats, 30 min retinal ischemia; 10 mg/kg orally twice a day for 14 days from 2 days after reperfusion; ERG about 1 hour after final administration; distilled water control group 35%. On the procedure: A rat retinal ischemia reperfusion model was prepared by a partially modified method of Steven Roth et al. (Experimental Eye Research, Vol. 65, pp. 771-779, 1997).
As experimental animals, SD rats (SPF, 9-week-old, male, approximately 300 g of body weight) were used. Such rats were anesthetized with halothane (introduction: 4%; retention: 2%; gas composition: 70% air+30% oxygen; gas flow rate: 2 L/min). The rat was placed on a fixing plate with the left body side upward. The skin located between the external acoustic foramen and the external canthus on the left side was incised, and the skin-incised portion was held with a hook. The temporal muscle was burned out with a bipolar coagulator (output: 4.5 W), and it was detached from the cranial bone and the mandibular arch. […]
ERG was measured in accordance with the method of Kawakami et al. (Gifu-dai Iki, Vol. 48, pp. 166-175, 2000). […] The obtained waveform was swept on a memory oscilloscope and then recorded by a thermal array recorder. […] ERG of the ischemic eye was evaluated as a ratio to the value of normal control eye. ERG was measured after adaptation to darkness at 2 days after retinal ischemia reperfusion, and at approximately 1 hour after the final administration.

In general, melting point refers to the temperature, or range, at which the solid turns liquid. `Cl.OC1CN(CCOCCc2ccc3sccc3c2)C1` came in with a melting point of 101 to 102 °C.
For the compound `O=C(O)/C=C\C(=O)O.OC1CN(CCCOCCc2ccc3sccc3c2)C1` [1-(3-(2-(1-benzothiophene-5-yl)ethoxy)propyl)-3-azetidinol maleate], the “ratio of the ERG amplitude value of the ischemic eye to the normal control eye” value in data set [1] was 65%.

(Values after US8067406B2, “Preventive/remedy for retinal nerve diseases containing alkyl ether derivatives or salts thereof” (Toyama Chemical Co., Ltd., priority 2003, dated 2011).)
